Values quoted from earlier work in paper PMC3600422 (Journal of molecular biology, 2012).

Key:
[1] = test system: small cell lung carcinoma; conditions: mouse models
cancer cells = conditions: Mcl-1 or Bfl-1 overexpressed

Question: For `CN(C)CC[C@H](CSc1ccccc1)Nc1ccc(S(=O)(=O)NC(=O)c2ccc(N3CCN(Cc4ccccc4-c4ccc(Cl)cc4)CC3)cc2)cc1[N+](=O)[O-]` [ABT-737], which “Binding to Mcl-1” value (Mcl-1) is on record?
Answer: The value was “do not bind to Mcl-1”.

Question: What about the “Binding to Bfl-1” value (Bfl-1) of the same compound?
Answer: Its value is “do not bind to Mcl-1 or Bfl-1”.

Question: What about the “Tumor regression” value [1] of the same compound?
Answer: The value was “can regress or eliminate small cell lung carcinoma”.

Question: And the “Inducing death in cancer cells” value (cancer cells)?
Answer: Its value is “ineffective in inducing death in cancer cells when these anti-apoptotic proteins are overexpressed”.
